In general, IC50 refers to the midpoint of a concentration-inhibition curve. A word on the inhibition: it is the change of the read-out against control, counted positive when it falls.

Like-named read-outs stand apart in the source and are kept apart here.

The test system of one data set is PL. Particulars: cited from earlier work.
Data set [1] has as its system RAW264.7 macrophage cells. Further details: method as in PMID 27514857. Particulars: cited from earlier work.
Details of data set [2]: method as in PMID 28122265. Particulars: cited from earlier work.
The target in a further data set is T1, Pancreatic lipase (PL) (Homo sapiens, UniProt P16233).
T1 sequence (P16233 17-465): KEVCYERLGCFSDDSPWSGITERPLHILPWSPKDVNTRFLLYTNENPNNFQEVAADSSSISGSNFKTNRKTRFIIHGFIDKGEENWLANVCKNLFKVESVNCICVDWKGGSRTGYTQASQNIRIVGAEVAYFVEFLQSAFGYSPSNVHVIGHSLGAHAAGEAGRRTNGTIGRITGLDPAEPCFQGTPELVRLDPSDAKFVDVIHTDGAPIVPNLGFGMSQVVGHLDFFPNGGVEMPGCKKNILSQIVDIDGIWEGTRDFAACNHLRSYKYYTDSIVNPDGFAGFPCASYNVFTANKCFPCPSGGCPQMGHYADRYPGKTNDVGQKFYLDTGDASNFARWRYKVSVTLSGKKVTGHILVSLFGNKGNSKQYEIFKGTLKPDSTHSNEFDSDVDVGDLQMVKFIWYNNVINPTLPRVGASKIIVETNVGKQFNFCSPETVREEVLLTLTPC
Put plainly: Pancreatic lipase (PL) inhibition, p-nitrophenyl butyrate substrate. Type of data set: biochemical. As to conditions: for IC50: mean ± SD of triplicate, read-out: Enzyme inhibitory activities IC50 ± SD, Pancreatic lipase (PL) (converted). The protocol: PL inhibition was assessed utilizing p-nitrophenyl butyrate as a substrate. The extracts were diluted using a buffer solution (0.1 M Tris-HCl, pH 8.0) to achieve a final concentration range of 12.5-400 µg/mL. […] An enzyme solution (EC 3.1.1.3, 200 units/mL) and a substrate solution (10 mM) were formulated in a buffer solution.
The experimental procedure was structured in microplate wells A (90 µL enzyme solution, 5 µL substrate solution, 5 µL buffer solution), B (90 µL enzyme solution, 10 µL buffer solution), C (90 µL enzyme solution, 5 µL sample solution, 5 µL substrate solution), and D (90 µL enzyme solution, 5 µL sample solution, 5 µL buffer solution). Microplates were incubated at 37 °C for 15 minutes before to and following the addition of substrates. The absorbance values were measured at 405 nm, and the percentage of pancreatic lipase enzyme inhibition was calculated. All concentrations were conducted in triplicate.
% Pancreatic lipase inhibition = [(A-B)-(C-D)/(A-B)] × 100
The IC50 values of the samples on lipase were derived using the graph equation established by plotting the observed percentage of enzyme inhibition against the logarithm of the concentrations (ordinate and abscissa).

The nature of data set [3]: Ferric reducing antioxidant power (FRAP) assay. The protocol: The Fe(II)-TPTZ complex, generated by the reduction of the TPTZ complex in the presence of antioxidants, has a blue colour and is measured at 595 nm. […] Absorbance measurements were recorded at 595 nm after 20 minutes at room temperature. […] FRAP values were reported as μM Trolox equivalents per gram of material.

A short description of data set [4]: Cupric-reducing antioxidant capacity (CUPRAC) assay. The protocol:
CUPRAC assay was performed according to the modified protocol. Methanolic solutions of Trolox, utilized as a reference, were produced at varying concentrations (1000-62.5 μM). Subsequently, 1 mL of NH4CH3COO and 1 mL of CuCl2.2H2O and 1 of mL neocuproine (Nc) solutions were combined, followed by the addition of 0.5 mL of the sample solution (10 mg/mL) and 0.6 mL of distilled water (1.1-x) water into the mixture. Following the mixing of the tubes and incubation in darkness at ambient temperature for 30 minutes, the absorbance of the samples was measured at 450 nm. The antioxidant capacity of the samples was quantified as TEAC (μM) by comparison with Trolox, the reference chemical.

Data set [5] concerns hypercholesterolemic rats. Details: method as in PMID 39615784. As to conditions: 100 mg/kg, hypercholesterolemic rats on a high-fat diet; cited from earlier work.
Data set [6] has as its system hypercholesterolemic hamsters. As to conditions: cited from earlier work.
The test system of the next data set is 3T3-L1 adipocytes. As to conditions: cited from earlier work.

On to `O=C(O)C(O)Cc1ccc(O)c(O)c1` (stereo not shown) [Danshensu, 3,4-dihydroxyphenyl lactic acid], for which the “PL IC50” value in the data set with PL was 65.160 ± 4.443 µg/mL. In addition, the lipid accumulation result in [1] was “reduce lipid accumulation”. Moreover, in [2], the radical scavenging ability result is on record as “equivalent to that of quercetin”.

As to `O=C(/C=C/c1ccc(O)c(O)c1)O[C@H](Cc1ccc(O)c(O)c1)C(=O)O` [Rosmarinic acid], the concentration for half-maximal inhibition (IC50) on Pancreatic lipase (PL) is 134 µM; in the data set on PL (read-out: lipase inhibitory activity IC50), 62.8 ± 2.7 µM. In addition, the FRAP in data set [3] stood at 1274.400 ± 1.633 µM TEAC. Also, the “FRAP (iron reducing antioxidant power)” value in data set [3] (sample 10 mg/mL) was determined as 1274.400 ± 1.633 µM Trolox equivalent/gram. In data set [4], this molecule returned a CUPRAC of 1801.389 ± 5.500 µM TEAC. Moreover, the “CUPRAC (copper reducing antioxidant power)” value in data set [4] (sample 10 mg/mL) stood at 1801.389 ± 5.500 µM Trolox equivalent/gram. The “PL inhibitory activity IC50” value with PL is 125.2 µg/mL. Besides, the “lipase inhibitory activity IC50” value on PL is given as 49.421 ± 1.448 µg/mL. Moreover, in [5], the “cholesterol and triglyceride levels” value was “improve cholesterol and triglyceride levels comparably to simvastatin”. Besides, the radical scavenging ability result in data set [2] is on record as “equivalent to that of quercetin”.

Turning to `CC[C@H](CC[C@@H](C)[C@H]1CC[C@H]2[C@@H]3CC=C4C[C@@H](O)CC[C@]4(C)[C@H]3CC[C@]12C)C(C)C` [β-sitosterol], the IC50 at Pancreatic lipase (PL) was 101 µM. Also, on Pancreatic lipase (PL) (read-out: PL inhibition), the inhibition at 100 µg/mL amounted to 68.5%. Besides, the PL inhibition in the data set with PL (100 µg/mL) was 79.1 ± 11.3%; with PL (4 mg/mL), 60.67% ± 0.53; in the data set on PL (first value of two) it was 2.99 ± 0.80%; in the data set on PL (second value of two), 8.80 ± 4.15%. Besides, in data set [6], the “cholesterol absorption and plasma cholesterol levels” value is “decrease cholesterol absorption and plasma cholesterol levels”. In addition, the “adipogenesis (intracellular triglyceride content and lipid accumulation)” value in the data set with 3T3-L1 adipocytes is given as “efficiently prevented adipogenesis”. Further, the cytotoxicity entry with 3T3-L1 adipocytes was “without including notable cytotoxicity”.

The values above are taken from article PMC12037426, “Lipid Metabolism-Related Enzyme Inhibition and Antioxidant Potential of the Extracts and Phytochemical Compounds from Trachystemon orientalis (L.) D.Don” (Plant Foods for Human Nutrition (Dordrecht, Netherlands), 2025).
